Literature values as cited in patent US20170340580A1, “BIOADHESIVE PATCH” (priority 2008, published 2017).

Conditions: 8 mg ml^−1; temperatures up to 37° C.

NCC(=O)CCC(=O)O [ALA, 5-aminolevulinic acid]
ALA stability in 0.1 M borate buffer pH 5: up to 6 hours
